This note sets out measurements from US20250136559A1, “SMO MODULATOR COMPOUNDS” (OMASS THERAPEUTICS LIMITED, priority 2022, published 2025).

Each structure is given as a SMILES string. Some results are limits rather than exact numbers.

Type in all cases: cell-based
In test [1] the target is T1, mouse SMO^W535L (Mus musculus, UniProt P56726, W539L).
T1 construct: expressed in transfected cells
The test can be described thus: Mouse assay: Gli1 qPCR in MEF cells stably expressing mouse SMO W535L. As to conditions: mSHh-treated, 24 hours; for IC50: Gli1 inhibition by qPCR, read-out: Mouse W535L pIC50 (converted); for Mouse W535L % Inh: percentage Gli1 inhibition. The procedure: (§1) Cell culture. All materials were purchased from Sigma-Aldrich, unless otherwise stated.
(§2) Compound treatment. […] After 1 hour incubation, cells were treated with assay medium containing mSHh prepared at 2.5× of final assay concentrations specified in the text and incubated for a further 24 hours at 37′C in a humidified 95% air/5% CO2 atmosphere prior to qPCR analysis.
(§3) Cell lysis and one-step qPCR. The Cells-to-CT™ 1-Step TaqMan® Kit was used in conjunction with TaqMan primer-probe assays for the detection of Gli1 (FAM, Mm00494654_m1) and Gusb (VIC, Mm01197698_m1) genes (all purchased from Life Technologies). Following 24 hours cell treatment, spent medium was removed and cells were washed with PBS before the application of lysis and stop solution as per manufacturer's instructions. The qPCR reactions were run in a 384-well PCR plate using master mix prepared according to manufacturer's instructions and cell lysate samples from treatment wells. Real-time PCR amplification was detected using the Bio-Rad CFX384 Touch PCR system. Four experimental replicates (two cell replicates and two qPCR replicates) were performed for each compound concentration tested. Real-time data were analysed using the CFX Maestro software (Bio-Rad) and obtained expression values were converted to percentage Gli1 inhibition by normalising to the average Gli1 expression of mSHh-treated control samples.

Test [2] addresses T2, mouse SMO^WT (Mus musculus, UniProt P56726).
T2 construct: expressed in transfected cells
As to the kind of experiment: Mouse assay: Gli1 qPCR in MEF cells stably expressing mouse SMO WT. As to conditions: mSHh-treated, 24 hours; for IC50: Gli1 inhibition by qPCR, read-out: Mouse WT pIC50 (converted); for Mouse WT % Inh: percentage Gli1 inhibition. Here is the method: as §1, §2, §3

The target in test [3] is T3, mouse SMO^D473H (Mus musculus, UniProt P56726, D477H).
T3 construct: expressed in transfected cells
T3 sequence (P56726 33-793 D477H): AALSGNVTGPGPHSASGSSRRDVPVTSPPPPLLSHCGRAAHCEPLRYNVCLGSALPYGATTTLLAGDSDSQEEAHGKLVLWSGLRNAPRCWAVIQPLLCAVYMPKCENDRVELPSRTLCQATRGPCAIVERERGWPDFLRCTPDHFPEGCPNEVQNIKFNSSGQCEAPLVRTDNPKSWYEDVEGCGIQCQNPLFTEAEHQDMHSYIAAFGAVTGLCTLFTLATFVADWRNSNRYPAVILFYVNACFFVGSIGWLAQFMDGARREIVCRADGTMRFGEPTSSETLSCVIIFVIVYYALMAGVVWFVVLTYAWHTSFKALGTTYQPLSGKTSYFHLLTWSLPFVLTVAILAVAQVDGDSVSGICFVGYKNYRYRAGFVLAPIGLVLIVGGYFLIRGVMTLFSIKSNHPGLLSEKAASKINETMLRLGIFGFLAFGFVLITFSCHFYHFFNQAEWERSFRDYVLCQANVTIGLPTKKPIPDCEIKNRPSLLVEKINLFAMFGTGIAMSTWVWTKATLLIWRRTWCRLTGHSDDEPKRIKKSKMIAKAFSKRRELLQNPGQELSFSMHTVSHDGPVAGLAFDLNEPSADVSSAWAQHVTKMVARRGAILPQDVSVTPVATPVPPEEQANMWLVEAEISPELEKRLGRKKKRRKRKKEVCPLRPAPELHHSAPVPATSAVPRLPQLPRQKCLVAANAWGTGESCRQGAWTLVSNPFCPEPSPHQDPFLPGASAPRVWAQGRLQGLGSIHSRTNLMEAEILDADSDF
The test can be described thus: Mouse assay: Gli1 qPCR in MEF cells stably expressing mouse SMO D473H. Particulars: mSHh-treated, 24 hours; for IC50: Gli1 inhibition by qPCR, read-out: Mouse D473H pIC50 (converted); for Mouse D473H % Inh: percentage Gli1 inhibition. The procedure: as §1, §2, §3
Background: Quantitative PCR measures a nucleic acid by following its amplification.

T1 sequence (P56726 33-793 W539L): as the sequence (P56726 33-793 D477H) above, with H445D, W507L counted along it
T2 sequence (P56726 33-793): as the sequence (P56726 33-793 D477H) above, with H445D counted along it

Regarding `O=C(Nc1ccc(-c2nc(-c3cccc(Oc4nccs4)c3)n[nH]2)cc1)c1cccc(CN2CCS(=O)(=O)CC2)c1` [Example 3-13, 3-[(1,1-Dioxo-1,4-thiazinan-4-yl)methyl]-N-[4-[3-[3-(1,3-thiazol-2-yloxy)phenyl]-1H-1,2,4-triazol-5-yl]phenyl]benzamide], in test [1], the IC50 is greater than 3310 nM and the “Mouse W535L % Inh” value came to 76.7%. In test [2], the IC50 was 79.4 nM and the “Mouse WT % Inh” value came out at 97.4%. In test [3], the IC50 is 631 nM and the “Mouse D473H % Inh” value was determined as 78.5%.
Take `O=C(Nc1ccc(-c2nc(-c3ccc(COc4ccccc4F)cc3)n[nH]2)cc1)c1cccc(CN2CCS(=O)(=O)CC2)c1` [Example 3-14, 3-[(1,1-Dioxo-1,4-thiazinan-4-yl)methy]-N-[4-[3-[4-[(2-fluorophenoxy)methyl]phenyl]-1H-1,2,4-triazol-5-yl]phenyl]benzamide]: in test [1], the IC50 is 631 nM and the “Mouse W535L % Inh” value is 50.9%. Also, in test [2], the IC50 was 39.8 nM and the “Mouse WT % Inh” value worked out at 97.3%. Further, in test [3], the IC50 was 251 nM and the “Mouse D473H % Inh” value is reported as 95.2%.
`O=C(Nc1ccc(-c2nc(-c3ccccn3)n[nH]2)cc1)c1cccc(CN2CCS(=O)(=O)CC2)c1` [Example 3-15, 3-[(1,1-Dioxo-1,4-thiazinan-4-yl)methyl]-N-[4-(3-pyridin-2-yl-1H-1,2,4-triazol-5-yl)phenyl]benzamide]: in test [1], the IC50 is 398 nM and the “Mouse W535L % Inh” value is listed as 53.4%. Moreover, in test [2], the IC50 is 79.4 nM and the “Mouse WT % Inh” value turned out to be 98.9%. In test [3], the IC50 is 1000 nM and the “Mouse D473H % Inh” value amounted to 97.0%.
`O=C(Nc1ccc(-c2nc(-c3ccc(C(F)(F)F)s3)n[nH]2)cc1)c1cccc(CN2CCS(=O)(=O)CC2)c1` [Example 3-16, 3-[(1,1-Dioxo-1,4-thiazinan-4-yl)methyl]-N-[4-[3-[5-(trifluoromethyl)thiophen-2-yl]-1H-1,2,4-triazol-5-yl]phenyl]benzamide]: in test [1], the IC50 was 794 nM and the “Mouse W535L % Inh” value was 58.5%. Moreover, in test [2], the IC50 was 100 nM and the “Mouse WT % Inh” value worked out at 99.4%. In addition, in test [3], the IC50 is 794 nM and the “Mouse D473H % Inh” value is recorded as 93.9%.
As to `O=C(Nc1ccc(-c2nc(Cc3ccccc3)n[nH]2)cc1)c1cccc(CN2CCS(=O)(=O)CC2)c1` [Example 3-17, N-[4-(3-Benzyl-1H-1,2,4-triazol-5-yl)phenyl]-3-[(1,1-dioxo-1,4-thiazinan-4-yl)methyl]benzamide], in test [1], the IC50 was 39.8 nM and the “Mouse W535L % Inh” value is 54.3%. Further, in test [2], the IC50 is 6.31 nM and the “Mouse WT % Inh” value came to 99.4%. Moreover, in test [3], the IC50 was 100 nM and the “Mouse D473H % Inh” value is 99.0%.
With `Cc1ccc(Cc2n[nH]c(-c3ccc(NC(=O)c4cccc(CN5CCS(=O)(=O)CC5)c4)cc3)n2)cc1` [Example 3-18, 3-[(1,1-Dioxo-1,4-thiazinan-4-yl)methyl]-N-[4-[5-[(4-methylphenyl)methyl]-1H-1,2,4-triazol-3-yl]phenyl]benzamide], in test [1], the IC50 is 25.1 nM and the “Mouse W535L % Inh” value worked out at 65.7%. For the same molecule, in test [2], the IC50 was 3.16 nM and the “Mouse WT % Inh” value stood at 98.5%. In test [3], the IC50 was 79.4 nM and the “Mouse D473H % Inh” value came out at 98.1%.
As to `O=C(Nc1ccc(-c2nc(Cc3ccccc3F)n[nH]2)cc1)c1cccc(CN2CCS(=O)(=O)CC2)c1` [Example 3-19, 3-[(1,1-Dioxo-1,4-thiazinan-4-yl)methy]-N-[4-[3-[(2-fluorophenyl)methyl]-1H-1,2,4-triazol-5-yl]phenyl]benzamide], in test [1], the IC50 was 39.8 nM and the “Mouse W535L % Inh” value is 64.3%. In test [2], the IC50 is 25.1 nM and the “Mouse WT % Inh” value stood at 99.1%. Also, in test [3], the IC50 was 316 nM and the “Mouse D473H % Inh” value turned out to be 96.9%.
Turning to `O=C(Nc1ccc(-c2nc(Cc3cccc(F)c3)n[nH]2)cc1)c1cccc(CN2CCS(=O)(=O)CC2)c1` [Example 3-20, 3-[(1,1-Dioxo-1,4-thiazinan-4-yl)methy]-N-[4-[3-[(3-fluorophenyl)methyl]-1H-1,2,4-triazol-5-yl]phenyl]benzamide], in test [1], the IC50 was 25.1 nM and the “Mouse W535L % Inh” value was found to be 66.1%. For the same molecule, in test [2], the IC50 is 15.8 nM and the “Mouse WT % Inh” value came to 99.0%. For the same molecule, in test [3], the IC50 was 251 nM and the “Mouse D473H % Inh” value is recorded as 96.8%.
As to `O=C(Nc1ccc(-c2nc(Cc3ccc(F)cc3)n[nH]2)cc1)c1cccc(CN2CCS(=O)(=O)CC2)c1` [Example 3-21, 3-[(1,1-Dioxo-1,4-thiazinan-4-yl)methy]-N-[4-[3-[(4-fluorophenyl)methyl]-1H-1,2,4-triazol-5-yl]phenyl]benzamide], in test [1], the IC50 is 501 nM and the “Mouse W535L % Inh” value was 64.1%. Also, in test [2], the IC50 is 100 nM and the “Mouse WT % Inh” value amounted to 97.5%. In addition, in test [3], the IC50 was 794 nM and the “Mouse D473H % Inh” value amounted to 82.3%.
Turning to `COc1cccc(Cc2n[nH]c(-c3ccc(NC(=O)c4cccc(CN5CCS(=O)(=O)CC5)c4)cc3)n2)c1` [Example 3-22, 3-[(1,1-Dioxo-1,4-thiazinan-4-yl)methy]-N-[4-[5-[(3-methoxyphenyl)methyl]-1H-1,2,4-triazol-3-yl]phenyl]benzamide], in test [1], the IC50 is 31.6 nM and the “Mouse W535L % Inh” value is 60.1%. In addition, in test [2], the IC50 is 7.94 nM and the “Mouse WT % Inh” value came out at 98.5%. In addition, in test [3], the IC50 was 63.1 nM and the “Mouse D473H % Inh” value was found to be 98.2%.
In the case of `O=C(Nc1ccc(-c2nc(Cc3ccc(Cl)cc3)n[nH]2)cc1)c1cccc(CN2CCS(=O)(=O)CC2)c1` [Example 3-23, N-[4-[3-[(4-Chlorophenyl)methyl]-1H-1,2,4-triazol-5-yl]phenyl]-3-[(1,1-dioxo-1,4-thiazinan-4-yl)methyl]benzamide], in test [1], the IC50 was 25.1 nM and the “Mouse W535L % Inh” value is 58.2%. Also, in test [2], the IC50 was 7.94 nM and the “Mouse WT % Inh” value was 99.5%. Moreover, in test [3], the IC50 was 316 nM and the “Mouse D473H % Inh” value is 95.0%.
Regarding `Cc1ccc(Cc2n[nH]c(-c3ccc(NC(=O)c4cccc(CN5CCS(=O)(=O)CC5)c4)cc3)n2)cc1C` [Example 3-25, N-[4-[5-[(3,4-Dimethylphenyl)methyl]-1H-1,2,4-triazol-3-yl]phenyl]-3-[(1,1-dioxo-1,4-thiazinan-4-yl)methyl]benzamide], in test [1], the IC50 was 39.8 nM and the “Mouse W535L % Inh” value was 80.5%. Further, in test [2], the IC50 is 2 nM and the “Mouse WT % Inh” value is reported as 98.5%. Also, in test [3], the IC50 was 100 nM and the “Mouse D473H % Inh” value was found to be 97.4%.
As to `O=C(Nc1ccc(-c2nc(Cc3cc(Cl)ccc3Cl)n[nH]2)cc1)c1cccc(CN2CCS(=O)(=O)CC2)c1` [Example 3-26, N-[4-[3-[(2,5-Dichlorophenyl)methyl]-1H-1,2,4-triazol-5-yl]phenyl]-3-[(1,1-dioxo-1,4-thiazinan-4-yl)methyl]benzamide], in test [1], the IC50 is 251 nM and the “Mouse W535L % Inh” value worked out at 64.8%. In test [2], the IC50 was 15.8 nM and the “Mouse WT % Inh” value worked out at 98.3%. Moreover, in test [3], the IC50 was 501 nM and the “Mouse D473H % Inh” value amounted to 87.1%.
As for `Cc1cc(Cc2n[nH]c(-c3ccc(NC(=O)c4cccc(CN5CCS(=O)(=O)CC5)c4)cc3)n2)ccc1Br` [Example 3-27, N-[4-[5-[(4-Bromo-3-methylphenyl)methyl]-1H-1,2,4-triazol-3-yl]phenyl]-3-[(1,1-dioxo-1,4-thiazinan-4-yl)methyl]benzamide], in test [1], the IC50 is 158 nM and the “Mouse W535L % Inh” value stood at 57.3%. Also, in test [2], the IC50 was 15.8 nM and the “Mouse WT % Inh” value is on record as 99.3%. For the same molecule, in test [3], the IC50 is 631 nM and the “Mouse D473H % Inh” value came out at 97.0%.
With `O=C(Nc1ccc(-c2nc(Cc3ccc4c(c3)OCCO4)n[nH]2)cc1)c1cccc(CN2CCS(=O)(=O)CC2)c1` [Example 3-28, N-[4-[3-(2,3-Dihydro-1,4-benzodioxin-6-ylmethyl)-1H-1,2,4-triazol-5-yl]phenyl]-3-[(1,1-dioxo-1,4-thiazinan-4-yl)methyl]benzamide], in test [1], the IC50 is 316 nM and the “Mouse W535L % Inh” value is recorded as 59.7%. In test [2], the IC50 was 79.4 nM and the “Mouse WT % Inh” value is given as 99.4%. Besides, in test [3], the IC50 is 794 nM and the “Mouse D473H % Inh” value worked out at 97.7%.
